Assay results taken from ChEMBL document CHEMBL3045628, “Quantitative structureactivity relationships studies for prediction of antimicrobial activity of synthesized disulfonamide derivatives” (2011).

Legend:
Assay type in all cases: functional
Staphylococcus aureus = assay: Antimicrobial activity against Staphylococcus aureus ATCC 25923 after 24 hr by broth microdilution assay
Escherichia coli = assay: Antimicrobial activity against Escherichia coli ATCC 11230 after 24 hr by broth microdilution assay
Bacillus cereus = assay: Antimicrobial activity against Bacillus cereus RSKK 863 after 24 hr by broth microdilution assay

SMILES	-logMIC (Staphylococcus aureus)	-logMIC (Escherichia coli)	-logMIC (Bacillus cereus)
CCS(=O)(=O)NCCCCCNS(=O)(=O)CC	2.61	2.67	2.58
COc1ccc(S(=O)(=O)NCCCNS(=O)(=O)c2ccc(OC)cc2)cc1	3.46	3.511	3.42
COc1cccc(S(=O)(=O)NCCNS(=O)(=O)c2cccc(OC)c2)c1	3.52	3.6	3.58
CCS(=O)(=O)NCCCNS(=O)(=O)CC	2.642	2.7	2.642
CCS(=O)(=O)NCCNS(=O)(=O)CC	2.66	2.72	2.66
CCCCS(=O)(=O)NCCCCNS(=O)(=O)CCCC	2.829	2.857	2.85
Cc1cccc(S(=O)(=O)NCCCNS(=O)(=O)c2cccc(C)c2)c1	3.48	3.57	3.44
O=S(=O)(NCCCCNS(=O)(=O)c1ccccc1)c1ccccc1	3.24	3.48	3.358
COc1cccc(S(=O)(=O)NCCCNS(=O)(=O)c2cccc(OC)c2)c1	3.5	3.59	3.55
CCCS(=O)(=O)NCCCNS(=O)(=O)CCC	3.009	3.104	3.058
COc1ccc(S(=O)(=O)NCCNS(=O)(=O)c2ccc(OC)cc2)cc1	3.49	3.56	3.46
CS(=O)(=O)NCCCCNS(C)(=O)=O	2.9	2.95	2.84
CCCS(=O)(=O)NCCCCNS(=O)(=O)CCC	2.933	3.119	2.95
O=S(=O)(NCCCCCNS(=O)(=O)c1ccccc1)c1ccccc1	3.38	3.496	3.2
CS(=O)(=O)NCCCNS(C)(=O)=O	2.925	2.97	2.864
Cc1cccc(S(=O)(=O)NCCCCNS(=O)(=O)c2cccc(C)c2)c1	3.47	3.55	3.41
Cc1ccccc1S(=O)(=O)NCCNS(=O)(=O)c1ccccc1C	3.638	3.7	3.56

SMILES	-logMIC (Staphylococcus aureus)	-logMIC (Escherichia coli)	-logMIC (Bacillus cereus)
O=S(=O)(NCCNS(=O)(=O)c1ccccc1)c1ccccc1	3.38	3.51	3.37
Cc1ccccc1S(=O)(=O)NCCCCNS(=O)(=O)c1ccccc1C	3.54	3.64	3.505
Cc1ccc(S(=O)(=O)NCCCCNS(=O)(=O)c2ccc(C)cc2)cc1	3.26	3.5	3.35
O=S(=O)(NCCCNS(=O)(=O)c1ccccc1)c1ccccc1	3.285	3.49	3.36
Cc1cccc(S(=O)(=O)NCCNS(=O)(=O)c2cccc(C)c2)c1	3.522	3.58	3.48
CCCCS(=O)(=O)NCCNS(=O)(=O)CCCC	2.974	3.12	2.83
CCS(=O)(=O)NCCCCNS(=O)(=O)CC	2.637	2.69	2.638
CCCS(=O)(=O)NCCCCCNS(=O)(=O)CCC	2.96	3.191	2.78
CS(=O)(=O)NCCNS(C)(=O)=O	2.99	2.99	2.876
Cc1ccc(S(=O)(=O)NCCCNS(=O)(=O)c2ccc(C)cc2)cc1	3.3	3.52	3.38
CCCCS(=O)(=O)NCCCNS(=O)(=O)CCCC	2.861	3.116	2.917
COc1ccccc1S(=O)(=O)NCCNS(=O)(=O)c1ccccc1OC	3.58	3.72	3.66
Cc1ccc(S(=O)(=O)NCCNS(=O)(=O)c2ccc(C)cc2)cc1	3.4	3.53	3.4
COc1ccccc1S(=O)(=O)NCCCNS(=O)(=O)c1ccccc1OC	3.55	3.711	3.6
CCCS(=O)(=O)NCCNS(=O)(=O)CCC	3.003	3.258	3.179
Cc1ccccc1S(=O)(=O)NCCCNS(=O)(=O)c1ccccc1C	3.6	3.68	3.542
CS(=O)(=O)NCCCCCNS(C)(=O)=O	2.88	2.94	2.828
